Measurements from patent publication US4566984A, “Ether polycarboxylates” (The Procter & Gamble Company, priority 1984, dated 1986).
Counter-ions that a name gives are not always drawn.

Assay: Calcium Binding Constants Determination (calcium selective electrode titration)
Type: physicochemical
Details: for Calcium Ion Binding Constants, Log KCa, pH 7.6 / Calcium Ion Binding Constants, Log KCa, pH 9.5: 35° C., 0.1 M ionic strength
Source text: A computer system (Hewlett-Packard) with digital voltmeters was used to collect and analyze data from an Orion calcium selective electrode and a linear syringe buret (Sage Instruments syringe pump plus a linear potentiometer). […] Volumetric accuracy was better than +/- 0.5%.
Three hundred data pairs of [Ca total] vs 10^(E/S), which is a linear measure of [Ca free], were collected and corrected for dilution during each titration. S is the Nernst equation slope, ca. 29 mv/decade, and E is the calcium electrode voltage. Calcium ion was titrated into buffer solution. Here, L represents the sequestering ligand. A ligand-free standard titration calibrated the electrode response. […] A third titration, adding Ca ion to a solution of a fixed [L tot] and fixed [Mg tot] was compared with KCa at different [Ca tot]/[L tot] ratios to reveal KMg at those same ratios. [formula]
This line was extrapolated back to [Ca free]=0 and [Ca tot] at that point represented a measure of calcium binding capacity.

SMILES	Calcium Ion Binding Constants, Log KCa, pH 7.6	Calcium Ion Binding Constants, Log KCa, pH 9.5	calcium binding relative to sodium tripolyphosphate and sodium nitrilotriacetate	calcium binding relative to two prior art ether carboxylates and sodium citrate
O=C([O-])CN(CC(=O)[O-])CC(=O)[O-].[Na+].[Na+].[Na+] [Nitrilotriacetic acid, sodium salt, reference compound]	3.3	5.5	–	–
O=C([O-])C1CCC(C(=O)[O-])C(C(=O)[O-])(C(=O)[O-])O1.[Na+].[Na+].[Na+].[Na+] (stereo not drawn) [Compound 7, Oxacyclohexane-2,2,3,6-tetracarboxylic acid, tetrasodium salt]	–	6.2	at least equivalent	clear advantage in calcium binding
O=C(O)COC(CC(=O)O)(C(=O)O)C(=O)O [Compound 5, 3,3-dicarboxy-4-oxa-1,6 hexanedioic acid, tetrasodium salt]	5.3	5.5	at least equivalent	clear advantage in calcium binding
O=C(O)COC(CC(=O)O)C(=O)O (stereo not drawn) [2-oxa-1,3,4 butanetricarboxylic acid, sodium salt, reference compound]	–	4.4	–	–
O=P(O)(O)OP(=O)(O)OP(=O)(O)O [Sodium tripolyphosphate, reference compound]	3.1	4.9	–	–
